Patent US9884823B2, “Oxime ether acetate compound, preparation method therefor and weeding application thereof” (ZHEJIANG UNIVERSITY OF TECHNOLOGY, priority 2014, dated 2018)
Read-outs that look alike come from different tables or passages of the source.

What was measured:
Wheat = experiment: Culture dish method (general screening); type: in vivo; settings: 100 mg/L, 7 days
Text: (§3) Culture dish method (general screening): The test targets were radish, cucumber, rape, wheat, sorghum and barnyard grass; the seeds of wheat, sorghum and radish were germinated in advance, and the uniform emerge-germinating seeds were used in the test.

Chinese sorghum = experiment: Culture dish method (general screening); type: in vivo; settings: 100 mg/L, 7 days
Text: as §3

Mustard = settings: 150 g a.i./ha, 30 days, Table 9
Small quinoa = settings: 150 g a.i./ha, 30 days, Table 9
Text: (§1) The raw drug which was selected from the compounds in table 1 was weighed using an analytical balance (0.0001 g), and dissolved in DMF containing 1 wt % Tween-80 emulsifier to prepare a mother liquor of raw drug with a mass concentration of 1.0˜5.0%, and then diluted with distilled water, to prepare preparations at desired concentrations according to the ratio of ingredients in Examples 8, 9 and 10.
(§2) The test targets were mustard, small quinoa, Abutilon, amaranthus retroflexus, Eclipta prostrata, crabgrass, dog point. A pot with a diameter of 7.5 cm was used, filled with composite soil (garden soil:nursery matrix, 1:2, v/v) to ¾ of the pot, then the above […] kinds of weeds targets were directly seeded (germination rate ≧85%), covered with soil at a thickness of 0.2 cm. When the weeds grew to 3-leaf stage, pre-emergence soil treatment for weeds planting, and then spraying was performed.

[1] = tested on: broadleaf weeds such as mustard, small quinoa, Abutilon, Amaranthus retroflexus and Eclipta prostrate; settings: 150 g a.i./ha; for herbicidal activity on broadleaf weeds targets: 30 days after administration, Table 9 summary; for activity on the growth of broadleaf weeds: postemergence spraying, vs clear water control
Text: as §1, §2

weeds = settings: pre-emergence soil treatment; dose lowered below 150 g a.i./ha
Text: as §1, §2

[2] = tested on: grass weeds such as crabgrass, barnyard grass, dog point; settings: for activity for grass targets such as crabgrass and dog point / activity on grass weeds such as crabgrass, dog point / activity on grass weeds: 150 g a.i./ha; for activity for grass targets such as crabgrass and dog point: 30 days after administration, Table 9 summary; for activity on grass weeds such as crabgrass, dog point: postemergence spraying, 30 days; for activity on crabgrass, barnyard grass, dog point: postemergence treatment, 150, 75, 37.5 g a.i./ha; for activity on grass weeds: pre-emergence soil treatment
Text: as §1, §2

Corn = settings: post-emergence spray treatment; for Crop inhibition rate, Corn: 150 g a.i./ha
Barnyardgrass [3] = experiment: Culture dish method (general screening); type: in vivo, barnyard grass; settings: 100 mg/L, 7 days
Text: as §3

Abutilon = experiment: Potted plants live body test; type: in vivo
Text: as §1, §2

Crabgrass = experiment: Potted plants live body test; type: in vivo
Text: as §1, §2

Dog point = experiment: Potted plants live body test; type: in vivo
Text: as §1, §2

amaranthus retroflexus = experiment: Potted plants live body test; type: in vivo
Text: as §1, §2

Eclipta prostrata = experiment: Potted plants live body test; type: in vivo; settings: for efficiency, Eclipta prostrata: 30 days, Table 9
Text: as §1, §2

Cucumber = experiment: Culture dish method (general screening); type: in vivo; settings: 100 mg/L, 7 days
Text: as §3

Barnyardgrass [4] = experiment: Potted plants live body test; type: in vivo, barnyard grass
Barley = settings: post-emergence spray treatment; for Crop inhibition rate, Barley: 150 g a.i./ha
Rape [5] = settings: 150 g a.i./ha; post-emergence spray treatment
Cotton = settings: 150 g a.i./ha; post-emergence spray treatment
Rape [6] = experiment: Culture dish method (general screening); type: in vivo; settings: 100 mg/L, 7 days
Text: as §3

Radish = experiment: Culture dish method (general screening); type: in vivo; settings: 100 mg/L, 7 days
Text: as §3

Soybean = settings: 150 g a.i./ha; post-emergence spray treatment
Rice = settings: 150 g a.i./ha; post-emergence spray treatment
[7] = Postemergence spraying, 150 g a.i./ha, 30 days, Table 9
[8] = Pre-emergence soil treatment, 37.5 g a.i./ha
[9] = Pre-emergence soil treatment, 75 g a.i./ha
[10] = Pre-emergence soil treatment, 150 g a.i./ha, 30 days, Table 9
[11] = Pre-emergence soil treatment, 150 g a.i./ha, Table 10
[12] = postemergence spraying, 37.5 g a.i./ha
[13] = postemergence spraying, 75 g a.i./ha
[14] = postemergence spraying, 150 g a.i./ha, Table 10
[15] = Postemergence spraying, 150 g a.i./ha
[16] = Pre-emergence soil treatment, 150 g a.i./ha

CON=C(C(=O)OC)c1ccccc1COc1cccc(-c2ncc(C(F)(F)F)cc2Cl)c1 [Compound 101]
inhibition rate, Wheat Root (Wheat): 50%
inhibition rate, Wheat Stem (Wheat): 20%
inhibition rate, Chinese sorghum Root (Chinese sorghum): 100%
inhibition rate, Chinese sorghum Stem (Chinese sorghum): 100%
efficiency, Mustard (Mustard; Postemergence spraying): 100%
efficiency, Mustard (Mustard; Pre-emergence soil treatment): 100%
efficiency, Small quinoa (Small quinoa; Postemergence spraying): 100%
efficiency, Small quinoa (Small quinoa; Pre-emergence soil treatment): 100%
herbicidal activity on broadleaf weeds targets [1]: herbicidal activity
activity on the growth of broadleaf weeds ([1]; 30 days): inhibitory activity
activity on 6 kinds of weed targets (weeds): significantly decreased activity or no activity
activity for grass targets such as crabgrass and dog point [2]: poor activity
activity on grass weeds such as crabgrass, dog point [2]: almost have no activity
activity on crabgrass, barnyard grass, dog point [2]: not good activity or no activity
activity on grass weeds [2]: not good activity
Crop inhibition rate, Corn (Corn): 0%
crop safety for corns (Corn): safer
inhibition rate, Barnyardgrass Root (Barnyardgrass [3]): 100%
inhibition rate, Barnyardgrass Stem (Barnyardgrass [3]): 95%
efficiency, Abutilon (Abutilon; [7]): 100%
efficiency, Abutilon (Abutilon; [8]): 0%
efficiency, Abutilon (Abutilon; [9]): 0%
efficiency, Abutilon (Abutilon; [10]): 100%
efficiency, Abutilon (Abutilon; [11]): 100%
efficiency, Abutilon (Abutilon; [12]): 30%
efficiency, Abutilon (Abutilon; [13]): 60%
efficiency, Abutilon (Abutilon; [14]): 100%
efficiency, Crabgrass (Crabgrass; [7]): 0%
efficiency, Crabgrass (Crabgrass; [8]): 0%
efficiency, Crabgrass (Crabgrass; [9]): 0%
efficiency, Crabgrass (Crabgrass; [10]): 80%
efficiency, Crabgrass (Crabgrass; [11]): 80%
efficiency, Crabgrass (Crabgrass; [12]): 0%
efficiency, Crabgrass (Crabgrass; [13]): 0%
efficiency, Crabgrass (Crabgrass; [14]): 0%
efficiency, Dog point (Dog point; [7]): 0%
efficiency, Dog point (Dog point; [8]): 0%
efficiency, Dog point (Dog point; [9]): 0%
efficiency, Dog point (Dog point; [10]): 50%
efficiency, Dog point (Dog point; [11]): 50%
efficiency, Dog point (Dog point; [12]): 0%
efficiency, Dog point (Dog point; [13]): 0%
efficiency, Dog point (Dog point; [14]): 0%
efficiency, amaranthus retroflexus (amaranthus retroflexus; [7]): 100%
efficiency, amaranthus retroflexus (amaranthus retroflexus; [8]): 0%
efficiency, amaranthus retroflexus (amaranthus retroflexus; [9]): 15%
efficiency, amaranthus retroflexus (amaranthus retroflexus; [10]): 100%
efficiency, amaranthus retroflexus (amaranthus retroflexus; [11]): 100%
efficiency, amaranthus retroflexus (amaranthus retroflexus; [12]): 100%
efficiency, amaranthus retroflexus (amaranthus retroflexus; [13]): 100%
efficiency, amaranthus retroflexus (amaranthus retroflexus; [14]): 100%
efficiency, Eclipta prostrata (Eclipta prostrata; [15]): 100%
efficiency, Eclipta prostrate (Eclipta prostrata; [8]): 0%
efficiency, Eclipta prostrate (Eclipta prostrata; [9]): 0%
efficiency, Eclipta prostrata (Eclipta prostrata; [16]): 85%
efficiency, Eclipta prostrate (Eclipta prostrata; [11]): 85%
efficiency, Eclipta prostrate (Eclipta prostrata; [12]): 97.5%
efficiency, Eclipta prostrate (Eclipta prostrata; [13]): 100%
efficiency, Eclipta prostrate (Eclipta prostrata; [14]): 100%
inhibition rate, Cucumber Root (Cucumber): 95%
inhibition rate, Cucumber Stem (Cucumber): 100%
efficiency, Barnyardgrass (Barnyardgrass [4]; [8]): 0%
efficiency, Barnyardgrass (Barnyardgrass [4]; [9]): 0%
efficiency, Barnyardgrass (Barnyardgrass [4]; [11]): 0%
efficiency, Barnyardgrass (Barnyardgrass [4]; [12]): 0%
efficiency, Barnyardgrass (Barnyardgrass [4]; [13]): 0%
efficiency, Barnyardgrass (Barnyardgrass [4]; [14]): 0%
Crop inhibition rate, Barley (Barley): 0%
crop safety for barleys (Barley): safer
Crop inhibition rate, Rape (Rape [5]): 50%
Crop inhibition rate, Cotton (Cotton): 50%
inhibition rate, Rape Root (Rape [6]): 100%
inhibition rate, Rape Stem (Rape [6]): 100%
inhibition rate, Radish Root (Radish): 100%
inhibition rate, Radish Stem (Radish): 100%
Crop inhibition rate, Soybean (Soybean): 40%
Crop inhibition rate, Rice (Rice): 30%

CON=C(C(=O)OC)c1ccccc1COc1ccc(-c2ncc(Cl)cc2Cl)cc1 [Compound 133]
inhibition rate, Wheat Root (Wheat): 50%
inhibition rate, Wheat Stem (Wheat): 0%
inhibition rate, Chinese sorghum Root (Chinese sorghum): 100%
inhibition rate, Chinese sorghum Stem (Chinese sorghum): 100%
efficiency, Mustard (Mustard; Postemergence spraying): 100%
efficiency, Mustard (Mustard; Pre-emergence soil treatment): 100%
efficiency, Small quinoa (Small quinoa; Postemergence spraying): 100%
efficiency, Small quinoa (Small quinoa; Pre-emergence soil treatment): 100%
inhibition rate on the growth of broadleaf weeds ([1]; 30 days): 100%
herbicidal activity on broadleaf weeds targets [1]: herbicidal activity
activity on the growth of broadleaf weeds ([1]; 30 days): inhibitory activity
activity on 6 kinds of weed targets (weeds): significantly decreased activity or no activity
activity for grass targets such as crabgrass and dog point [2]: poor activity
activity on grass weeds such as crabgrass, dog point [2]: almost have no activity
activity on crabgrass, barnyard grass, dog point [2]: not good activity or no activity
activity on grass weeds [2]: not good activity
Crop inhibition rate, Corn (Corn): 0%
crop safety for corns (Corn): safer
inhibition rate, Barnyardgrass Root (Barnyardgrass [3]): 100%
inhibition rate, Barnyardgrass Stem (Barnyardgrass [3]): 100%
efficiency, Abutilon (Abutilon; [7]): 100%
efficiency, Abutilon (Abutilon; [8]): 0%
efficiency, Abutilon (Abutilon; [9]): 0%
efficiency, Abutilon (Abutilon; [10]): 100%
efficiency, Abutilon (Abutilon; [11]): 100%
efficiency, Abutilon (Abutilon; [12]): 100%
efficiency, Abutilon (Abutilon; [13]): 100%
efficiency, Abutilon (Abutilon; [14]): 100%
efficiency on Abutilon (Abutilon; postemergence treatment, over doses 150, 75, 37.5 g a.i./ha): 100%
efficiency, Crabgrass (Crabgrass; [7]): 0%
efficiency, Crabgrass (Crabgrass; [8]): 0%
efficiency, Crabgrass (Crabgrass; [9]): 0%
efficiency, Crabgrass (Crabgrass; [10]): 50%
efficiency, Crabgrass (Crabgrass; [11]): 50%
efficiency, Crabgrass (Crabgrass; [12]): 0%
efficiency, Crabgrass (Crabgrass; [13]): 0%
efficiency, Crabgrass (Crabgrass; [14]): 0%
efficiency, Dog point (Dog point; [7]): 0%
efficiency, Dog point (Dog point; [8]): 0%
efficiency, Dog point (Dog point; [9]): 0%
efficiency, Dog point (Dog point; [10]): 50%
efficiency, Dog point (Dog point; [11]): 50%
efficiency, Dog point (Dog point; [12]): 0%
efficiency, Dog point (Dog point; [13]): 0%
efficiency, Dog point (Dog point; [14]): 0%
efficiency, amaranthus retroflexus (amaranthus retroflexus; [7]): 100%
efficiency, amaranthus retroflexus (amaranthus retroflexus; [8]): 20%
efficiency, amaranthus retroflexus (amaranthus retroflexus; [9]): 30%
efficiency, amaranthus retroflexus (amaranthus retroflexus; [10]): 100%
efficiency, amaranthus retroflexus (amaranthus retroflexus; [11]): 100%
efficiency, amaranthus retroflexus (amaranthus retroflexus; [12]): 100%
efficiency, amaranthus retroflexus (amaranthus retroflexus; [13]): 100%
efficiency, amaranthus retroflexus (amaranthus retroflexus; [14]): 100%
efficiency, Eclipta prostrata (Eclipta prostrata; [15]): 100%
efficiency, Eclipta prostrate (Eclipta prostrata; [8]): 0%
efficiency, Eclipta prostrate (Eclipta prostrata; [9]): 0%
efficiency, Eclipta prostrata (Eclipta prostrata; [16]): 100%
efficiency, Eclipta prostrate (Eclipta prostrata; [11]): 100%
efficiency, Eclipta prostrate (Eclipta prostrata; [12]): 97.5%
efficiency, Eclipta prostrate (Eclipta prostrata; [13]): 100%
efficiency, Eclipta prostrate (Eclipta prostrata; [14]): 100%
inhibition rate, Cucumber Root (Cucumber): 100%
inhibition rate, Cucumber Stem (Cucumber): 100%
efficiency, Barnyardgrass (Barnyardgrass [4]; [8]): 0%
efficiency, Barnyardgrass (Barnyardgrass [4]; [9]): 0%
efficiency, Barnyardgrass (Barnyardgrass [4]; [11]): 0%
efficiency, Barnyardgrass (Barnyardgrass [4]; [12]): 0%
efficiency, Barnyardgrass (Barnyardgrass [4]; [13]): 0%
efficiency, Barnyardgrass (Barnyardgrass [4]; [14]): 0%
Crop inhibition rate, Barley (Barley): 0%
crop safety for barleys (Barley): safer
Crop inhibition rate, Rape (Rape [5]): 100%
Crop inhibition rate, Cotton (Cotton): 50%
inhibition rate, Rape Root (Rape [6]): 100%
inhibition rate, Rape Stem (Rape [6]): 100%
inhibition rate, Radish Root (Radish): 100%
inhibition rate, Radish Stem (Radish): 100%
Crop inhibition rate, Soybean (Soybean): 40%
Crop inhibition rate, Rice (Rice): 30%
